Tested on: 192522-019-R-J2-PDC complex tumor spheroid viability
Experiment: Anticancer human tumor 192522-019-R-J2-PDC patient-derived colon adenocarcinoma cell line growth inhibition [POLQ]
Conditions: for IC50: curve of first compound; for viability, T/C: stronger effect = lower value
In short: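 PDC + HUVEC + MSC complex spheroids; POLQ inhibitors ± partner drugs; top conc. at/near clinical Cmax, else 10 microM (SN-38 1 microM), half-log dilutions; 37 degrees C, 5% CO2.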

[1] = second compound 0.0316 µM, first compound 0.0316 µM
[2] = second compound 0.0316 µM, first compound 0.1 µM
[3] = second compound 0.0316 µM, first compound 0.316 µM
[4] = second compound 0.0316 µM, first compound 1 µM
[5] = second compound 0.0316 µM, first compound 3.16 µM
[6] = second compound 0.0316 µM, first compound 10 µM
[7] = second compound 0.1 µM, first compound 0.0316 µM
[8] = second compound 0.1 µM, first compound 0.1 µM
[9] = second compound 0.1 µM, first compound 0.316 µM
[10] = second compound 0.1 µM, first compound 1 µM
[11] = second compound 0.1 µM, first compound 3.16 µM
[12] = second compound 0.1 µM, first compound 10 µM
[13] = second compound 0.316 µM, first compound 0.0316 µM
[14] = second compound 0.316 µM, first compound 0.1 µM
[15] = second compound 0.316 µM, first compound 0.316 µM
[16] = second compound 0.316 µM, first compound 1 µM
[17] = second compound 0.316 µM, first compound 3.16 µM
[18] = second compound 0.316 µM, first compound 10 µM
[19] = second compound 1 µM, first compound 0.0316 µM
[20] = second compound 1 µM, first compound 0.1 µM
[21] = second compound 1 µM, first compound 0.316 µM
[22] = second compound 1 µM, first compound 1 µM
[23] = second compound 1 µM, first compound 3.16 µM
[24] = second compound 1 µM, first compound 10 µM
[25] = second compound 3.16 µM, first compound 0.0316 µM
[26] = second compound 3.16 µM, first compound 0.1 µM
[27] = second compound 3.16 µM, first compound 0.316 µM
[28] = second compound 3.16 µM, first compound 1 µM
[29] = second compound 3.16 µM, first compound 3.16 µM
[30] = second compound 3.16 µM, first compound 10 µM
[31] = second compound 10 µM, first compound 0.0316 µM
[32] = second compound 10 µM, first compound 0.1 µM
[33] = second compound 10 µM, first compound 0.316 µM
[34] = second compound 10 µM, first compound 1 µM
[35] = second compound 10 µM, first compound 3.16 µM
[36] = second compound 10 µM, first compound 10 µM
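Note: spheroids exposed to drugs for seven days before reading.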
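Throughout, for viability, T/C: 100% = DMSO vehicle control viability in luminescence.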

In the case of `CCc1cc2c(N3CCc4c(cc(Cn5ccnc5)cc4-c4cn(C)nc4C(F)(F)F)C3=O)cc(C)nc2c(OC)n1` + Nc1ccc(C#CCN(C(=O)Cc2ncc(C(F)(F)F)cc2C(F)(F)F)c2ccc(F)cc2)nn1, the IC50 (second compound 0.0316 µM) is reported as over 10 µM, the IC50 (second compound 0.1 µM) is reported as over 10 µM and the IC50 (second compound 0.316 µM) is reported as over 10 µM. For the same molecule, the IC50 (second compound 1 µM) was over 10 µM, the IC50 (second compound 3.16 µM) was over 10 µM and the IC50 (second compound 10 µM) was over 10 µM. For the same molecule, the viability, T/C [1] was 102%, the viability, T/C [2] was 99.6% and the viability, T/C [3] was 88.1%. The viability, T/C [4] was 73.7%, the viability, T/C [5] was 63.6% and the viability, T/C [6] was 65.4%. The viability, T/C [7] was 101%, the viability, T/C [8] was 93.6% and the viability, T/C [9] was 77.1%. It also gave a viability, T/C [10] of 76.9%, a viability, T/C [11] of 79.5% and a viability, T/C [12] of 73.1%. For the same molecule, the viability, T/C [13] was 105%, the viability, T/C [14] was 100% and the viability, T/C [15] was 89.4%. For the same molecule, the viability, T/C [16] was 75.6%, the viability, T/C [17] was 72.8% and the viability, T/C [18] was 73.4%. For the same molecule, the viability, T/C [19] was 103%, the viability, T/C [20] was 94.2% and the viability, T/C [21] was 90.8%. It also gave a viability, T/C [22] of 76.8%, a viability, T/C [23] of 70.8% and a viability, T/C [24] of 69.2%. It also gave a viability, T/C [25] of 101%, a viability, T/C [26] of 95.9% and a viability, T/C [27] of 89.7%. It also gave a viability, T/C [28] of 81.6%, a viability, T/C [29] of 90.6% and a viability, T/C [30] of 81.3%. For the same molecule, the viability, T/C [31] was 102%, the viability, T/C [32] was 98.7% and the viability, T/C [33] was 89.1%. The viability, T/C [34] was 83.4%, the viability, T/C [35] was 92.8% and the viability, T/C [36] was 81%.

In the case of `CCc1cc2c(N3CCc4c(cc(Cn5ccnc5)cc4-c4cn(C)nc4C(F)(F)F)C3=O)ccnc2c(OC)n1` + Nc1ccc(C#CCN(C(=O)Cc2ncc(C(F)(F)F)cc2C(F)(F)F)c2ccc(F)cc2)nn1, the IC50 (second compound 0.0316 µM) is reported as over 10 µM, the IC50 (second compound 0.1 µM) is reported as over 10 µM and the IC50 (second compound 0.316 µM) is reported as over 10 µM. The IC50 (second compound 1 µM) was over 10 µM, the IC50 (second compound 3.16 µM) was over 10 µM and the IC50 (second compound 10 µM) was over 10 µM. For the same molecule, the viability, T/C [1] was 109%, the viability, T/C [2] was 94.7% and the viability, T/C [3] was 91.9%. The viability, T/C [4] was 71.8%, the viability, T/C [5] was 75.5% and the viability, T/C [6] was 72.2%. The viability, T/C [7] was 96.1%, the viability, T/C [8] was 94.9% and the viability, T/C [9] was 94%. For the same molecule, the viability, T/C [10] was 80.9%, the viability, T/C [11] was 74.6% and the viability, T/C [12] was 70.6%. It also gave a viability, T/C [13] of 103%, a viability, T/C [14] of 99% and a viability, T/C [15] of 88%. The viability, T/C [16] was 80.6%, the viability, T/C [17] was 76.2% and the viability, T/C [18] was 77.1%. For the same molecule, the viability, T/C [19] was 99.7%, the viability, T/C [20] was 99.4% and the viability, T/C [21] was 94.4%. It also gave a viability, T/C [22] of 88.3%, a viability, T/C [23] of 87.6% and a viability, T/C [24] of 74.5%. The viability, T/C [25] was 108%, the viability, T/C [26] was 91.6% and the viability, T/C [27] was 97.5%. It also gave a viability, T/C [28] of 81%, a viability, T/C [29] of 90.6% and a viability, T/C [30] of 75.8%. For the same molecule, the viability, T/C [31] was 106%, the viability, T/C [32] was 97.9% and the viability, T/C [33] was 97.8%. For the same molecule, the viability, T/C [34] was 86%, the viability, T/C [35] was 92.7% and the viability, T/C [36] was 79.8%.

`Cn1ncnc1[C@H]1c2n[nH]c(=O)c3cc(F)cc(c23)N[C@@H]1c1ccc(F)cc1` + Nc1ccc(C#CCN(C(=O)Cc2ncc(C(F)(F)F)cc2C(F)(F)F)c2ccc(F)cc2)nn1 was tested, and the IC50 (second compound 0.0316 µM) was over 0.1 µM, the IC50 (second compound 0.1 µM) was over 0.1 µM and the IC50 (second compound 0.316 µM) was over 0.1 µM. The IC50 (second compound 1 µM) was over 0.1 µM, the IC50 (second compound 3.16 µM) was over 0.1 µM and the IC50 (second compound 10 µM) was over 0.1 µM. For the same molecule, the viability, T/C (second compound 0.0316 µM, first compound 0.000316 µM) was 101%, the viability, T/C (second compound 0.0316 µM, first compound 0.001 µM) was 108% and the viability, T/C (second compound 0.0316 µM, first compound 0.00316 µM) was 101%. It also gave a viability, T/C (second compound 0.0316 µM, first compound 0.01 µM) of 104%, a viability, T/C [1] of 99.4% and a viability, T/C [2] of 98.9%. It also gave a viability, T/C (second compound 0.1 µM, first compound 0.000316 µM) of 108%, a viability, T/C (second compound 0.1 µM, first compound 0.001 µM) of 100% and a viability, T/C (second compound 0.1 µM, first compound 0.00316 µM) of 107%. For the same molecule, the viability, T/C (second compound 0.1 µM, first compound 0.01 µM) was 110%, the viability, T/C [7] was 113% and the viability, T/C [8] was 91.4%. The viability, T/C (second compound 0.316 µM, first compound 0.000316 µM) was 107%, the viability, T/C (second compound 0.316 µM, first compound 0.001 µM) was 95.4% and the viability, T/C (second compound 0.316 µM, first compound 0.00316 µM) was 97.9%. The viability, T/C (second compound 0.316 µM, first compound 0.01 µM) was 108%, the viability, T/C [13] was 111% and the viability, T/C [14] was 102%. For the same molecule, the viability, T/C (second compound 1 µM, first compound 0.000316 µM) was 119%, the viability, T/C (second compound 1 µM, first compound 0.001 µM) was 109% and the viability, T/C (second compound 1 µM, first compound 0.00316 µM) was 102%. For the same molecule, the viability, T/C (second compound 1 µM, first compound 0.01 µM) was 99.9%, the viability, T/C [19] was 105% and the viability, T/C [20] was 114%. For the same molecule, the viability, T/C (second compound 3.16 µM, first compound 0.000316 µM) was 102%, the viability, T/C (second compound 3.16 µM, first compound 0.001 µM) was 107% and the viability, T/C (second compound 3.16 µM, first compound 0.00316 µM) was 109%. It also gave a viability, T/C (second compound 3.16 µM, first compound 0.01 µM) of 106%, a viability, T/C [25] of 105% and a viability, T/C [26] of 104%. For the same molecule, the viability, T/C (second compound 10 µM, first compound 0.000316 µM) was 108%, the viability, T/C (second compound 10 µM, first compound 0.001 µM) was 114% and the viability, T/C (second compound 10 µM, first compound 0.00316 µM) was 109%. For the same molecule, the viability, T/C (second compound 10 µM, first compound 0.01 µM) was 99.2%, the viability, T/C [31] was 99.2% and the viability, T/C [32] was 107%.

Reference: PubChem BioAssay AID1963850 (Molecular Pharmacology Branch, DTP, NCI, 2024)
